From publication PMC9501525, “Conjugation of a Cationic Cell-Penetrating Peptide with a Novel Kunitzin-like Trypsin Inhibitor: New Insights for Enhancement of Peptide Bioactivities” (Pharmaceutics, 2022) come the findings set out here.

For data set [1], the target named is chymotrypsin (Bos taurus, UniProt P00766). Put plainly: Chymotrypsin inhibition determination (fluorogenic substrate, Morrison Ki). Conditions: Morrison equation; substrate succinyl-Ala-Ala-Pro-Phe-AMC in PBS; Km = 17.15 μM, [S] = 42.86 μM, Et = 0.0020 μM; peptide 0.1–100 µM; nine replications in three experiments; N.I. = no inhibitory effect. It is filed as biochemical. The method, then: (§1) Phe-Pro-Arg-AMC (Bachem, Merseyside, UK) and succinyl-Ala-Ala-Pro-Phe-AMC (Bachem, Merseyside, UK) were used as substrates for trypsin and chymotrypsin inhibition determinations, respectively. Serial peptide dilutions (0.1–100 µM in phosphate buffered saline (PBS)) were incubated with 180 µL of substrate solution (50 µM in PBS) in a black 96-well plate under dark conditions for 10 min. Immediately prior to measurement, 10 µL of trypsin/chymotrypsin working solution (0.1 µM in PBS) was added to each well (final volume of 210 µL) in the plate. Subsequently, the fluorescence intensity was measured with the FLUO star OPTIMA plate reader (BMG Labtech, Ortenberg, Germany). The whole measurement process lasted for 30 min and was carried out at an emission wavelength of 460 nm and an excitation wavelength of 395 nm. The inhibition curves of trypsin and chymotrypsin were analyzed by non-linear regression using the Morrison equation in Prism 9 (Trypsin Km = 67.38 μM; Chymotrypsin Km = 17.15 μM; [S] = 42.86 μM; Et = 0.0020 μM).

Data set [2] relates to K. pneumoniae (ATCC 43816). It is filed as cell-based, Klebsiella pneumoniae. The settings on record: for MIC: MHB, 5 × 10^5 CFU/mL, overnight; for MBC: clear wells spotted onto MHA. Here is the method:
(§2) The antimicrobial efficacy screening of the purified peptides was performed by MIC/MBC experiments on the following six different bacteria and an opportunistic pathogenic yeast: E. coli (ATCC 8739), Klebsiella pneumoniae (K. pneumoniae) (ATCC 43816), Pseudomonas aeruginosa (P. aeruginosa) (ATCC 9027), Staphylococcus aureus (S. aureus) (ATCC 6538), methicillin-resistant Staphylococcus aureus (MRSA) (NCTC 12493), Enterococcus faecium (E. faecium) (NCTC 12697), and Candida albicans (C. albicans) (ATCC 10231). First, frozen beads of respective cultures were inoculated into Mueller Hinton broth (MHB) medium and incubated overnight at 37 °C. Next, 500 µL of respective suspensions were added to the fresh MHB medium for incubation, and then sub-cultured until reaching the log growth phase, which was determined by measuring the absorbance of cultures at a wavelength of 550 nm. Then, the subcultures were diluted to 5 × 10^5 CFU/mL and 99 µL of suspension was removed and mixed with 1 µL of peptide solution at different concentrations (double-dilution of 12,800 to 100 µM) in a 96-well plate. The blank control, vehicle control, growth control, and the positive control groups were prepared according to the conditions mentioned previously. The peptide solutions were added to the plate and mixed with the diluted microbial suspensions. After overnight incubation, the absorbance at 550 nm of each well was measured with a Synergy HT plate reader (Biotech, Minneapolis, MN, USA). Subsequently, the samples in each clear well were spotted onto Mueller Hinton agar (MHA) plates for the MBC assays of the tested peptides.

Data set [3] relates to P. aeruginosa (ATCC 9027). Type of data set: cell-based, Pseudomonas aeruginosa. The settings on record: for MIC: MHB, 5 × 10^5 CFU/mL, overnight; for MBC: clear wells spotted onto MHA. The method, then:
as §2

The test system of data set [4] is S. aureus (ATCC 6538). It is filed as cell-based, Staphylococcus aureus. The settings on record: for MIC: MHB, 5 × 10^5 CFU/mL, overnight, absorbance 550 nm; for MBC: clear wells spotted onto MHA. Here is the method:
as §2

The test system of data set [5] is horse erythrocytes. Put plainly: Haemolysis activity assay. It is filed as cell-based. Conditions: 2% horse erythrocytes in PBS, 37 °C, 2 h. The method, then: Horse erythrocytes (TCS Biosciences Ltd., Buckingham, UK) were washed completely with PBS and resuspended to obtain a 2% horse erythrocyte suspension. Then, the peptide solutions at different concentrations were gently mixed with the same volume of horse red blood cell suspension and the mixture of peptide and horse erythrocytes was placed into a humidified incubator at 37 °C for 2 h. After incubation, the mixture of all experimental groups was centrifuged at 900× g for 10 min and the supernatants obtained were transferred to a blank 96-well plate. The absorbance of each well was measured at 550 nm using the Synergy HT plate reader.

The test system of data set [6] is E. coli (ATCC 8739). Type of data set: cell-based, Escherichia coli. Conditions: for MIC: MHB, 5 × 10^5 CFU/mL, overnight; for MBC: clear wells spotted onto MHA. The method, then: as §2
Data set [7] deals with E. faecalis (NCTC 12697). Type of data set: cell-based. Conditions: for MIC: MHB, 5 × 10^5 CFU/mL, overnight; for MBC: clear wells spotted onto MHA. Here is the method:
as §2

For data set [8], the target named is T1, trypsin (Bos taurus, UniProt P00760).
T1 construct: gene PRSS1
T1 sequence (P00760 24-246): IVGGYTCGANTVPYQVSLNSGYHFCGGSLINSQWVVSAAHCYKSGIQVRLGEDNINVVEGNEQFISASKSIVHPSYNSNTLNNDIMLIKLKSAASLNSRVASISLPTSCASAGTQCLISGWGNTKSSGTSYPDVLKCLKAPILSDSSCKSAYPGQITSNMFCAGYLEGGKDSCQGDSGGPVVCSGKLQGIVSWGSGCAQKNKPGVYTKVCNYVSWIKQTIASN
Put plainly: Trypsin inhibition determination (fluorogenic substrate, Morrison Ki). It is filed as biochemical. Conditions: Morrison equation; substrate Phe-Pro-Arg-AMC in PBS; Km = 67.38 μM, [S] = 42.86 μM, Et = 0.0020 μM; peptide 0.1–100 µM; nine replications in three experiments; N.I. = no inhibitory effect. Here is the method:
as §1

The test system of data set [9] is E. coli biofilm. The data set is described as follows: Antibiofilm assays (MBIC/MBEC, crystal violet). Type of data set: cell-based, Escherichia coli. Conditions: for Concentration inhibiting biofilm formation (MBIC): E. coli, LB + 1% glucose, overnight 37 °C, crystal violet 595 nm, tested 1 to 128 µM; for Effect on existing biofilms (MBEC): E. coli pre-formed biofilm, 24 h, highest experimental concentration 128 µM. The method, then:
To explore the ability of peptides to inhibit and eradicate the biofilm of E. coli, the minimum biofilm inhibition concentrations (MBICs) and minimum biofilm eradication concentrations (MBECs) were tested, respectively. Luria-Bertani broth (LB) medium containing 1% glucose was used to culture E. coli. The subcultured bacteria were diluted to 5 × 10^5 CFU/mL and 99 µL of this bacterial suspension was used to mix with 1 µL of peptide solution at different concentrations (double-dilution of 12,800 to 100 µM) in a 96-well plate. After overnight culture in an oscillating incubator at 37 °C and 220 rpm, the formed biofilm was washed twice with 100 µL PBS, then fixed in methanol. Next, biofilm formation was evaluated by 0.1% crystal violet staining. After dyeing for 15 min, the excess crystal violet was washed off and 30% glacial acetic acid was added to each well of a 96-well plate after drying. Then, the plate was shaken for 15 min, and the absorbance was measured at 595 nm using the Synergy HT plate reader. For the determination of MBEC, after the biofilm was formed, it was first washed twice with PBS, then the fresh medium and different concentrations of peptide (similar to MBIC experiments) were added and incubated at 37 °C at 220 rpm. The absorbance measurement was the same as previously described after 24 h of MBIC.

Setting [10] is: peptide 128 µM (maximum test concentration), vs 0.1% Triton X-100.

Peptide text beside a SMILES is read from it. Where only a bound is given, the exact number is not on record here.

In general, MIC refers to the smallest concentration in the dilution series that meets the test's criterion for growth inhibition. The MBC is the smallest concentration meeting the test's criterion for killing. One may read the Ki as a measure of affinity in units of concentration, obtained from inhibition or displacement. High values mean a looser hold on the target, low ones a stronger hold on the target. Take `CC(C)C[C@H](NC(=O)[C@H](CCCCN)NC(=O)[C@H](C)NC(=O)[C@H](C)N)C(=O)N1CCC[C@H]1C(=O)N[C@@H](Cc1ccccc1)C(=O)N[C@@H](CCCNC(=N)N)C(=O)N[C@H]1CSSC[C@@H](C(=O)O)NC(=O)[C@H](Cc2ccccc2)NC(=O)[C@H](C)NC(=O)[C@H](C)NC(=O)[C@H](CCCCN)NC1=O` [Kunitzin-OV2] (HELM PEPTIDE1{A.A.K.L.P.F.R.C.K.A.A.F.C}$PEPTIDE1,PEPTIDE1,8:R3-13:R3$$$V2.0): in data set [1], the “Chymotrypsin Ki” value is on record as “N.I”. Further, the MIC in [2] is on record as greater than 128 µM; in data set [3], greater than 128 µM; in data set [4], greater than 128 µM; in [6] it was 128 µM; in data set [7], greater than 128 µM. The minimum bactericidal concentration (MBC) in data set [2] was greater than 128 µM; in data set [3] it was greater than 128 µM; in data set [4], greater than 128 µM; in [6] it was 128/128 µM; in data set [7], greater than 128 µM. In addition, the Haemolytic activity entry in data set [5] (setting [10]) is given as “less than 10%”. In data set [8], the Ki came out at 9.82 µM. Further, the “Concentration inhibiting biofilm formation (MBIC)” value in [9] is given as greater than 128 µM.

Regarding `CC(C)C[C@H](NC(=O)[C@H](CCCCN)NC(=O)[C@H](C)NC(=O)[C@H](C)NC(=O)CNC(=O)CNC(=O)[C@H](CCCNC(=N)N)NC(=O)[C@H](CCCNC(=N)N)NC(=O)[C@H](CCCNC(=N)N)NC(=O)[C@H](CCC(N)=O)NC(=O)[C@H](CCCNC(=N)N)NC(=O)[C@H](CCCNC(=N)N)NC(=O)[C@H](CCCCN)NC(=O)[C@H](CCCCN)NC(=O)[C@@H](N)CCCNC(=N)N)C(=O)N1CCC[C@H]1C(=O)N[C@@H](Cc1ccccc1)C(=O)N[C@@H](CCCNC(=N)N)C(=O)N[C@H]1CSSC[C@@H](C(=O)O)NC(=O)[C@H](Cc2ccccc2)NC(=O)[C@H](C)NC(=O)[C@H](C)NC(=O)[C@H](Cc2ccccc2)NC1=O` [TAT-F9-KOV2] (HELM PEPTIDE1{R.K.K.R.R.Q.R.R.R.G.G.A.A.K.L.P.F.R.C.F.A.A.F.C}$PEPTIDE1,PEPTIDE1,19:R3-24:R3$$$V2.0), the Ki in data set [1] came to 2.23 µM. The MIC in [2] is listed as greater than 128 µM; in data set [3], greater than 128 µM; in data set [4], 64 µM; in [6], 8 µM; in data set [7], greater than 128 µM. Besides, the MBC in data set [2] is reported as greater than 128 µM; in data set [3], greater than 128 µM; in [4], 128 µM; in data set [6], 8/8 µM; in data set [7], greater than 128 µM. Also, the Haemolytic activity in data set [5] (peptide 32 µM) is on record as 10%; in [5] (setting [10]), “about 25%”. The “Trypsin Ki” value in data set [8] is “N.I”. Moreover, the “Effect on existing biofilms (MBEC)” value in [9] is given as greater than 128 µM. In addition, the “Concentration inhibiting biofilm formation (MBIC)” value in data set [9] came out at 16 µM.

Consider `CC(C)C[C@H](NC(=O)[C@H](CCCCN)NC(=O)[C@H](C)NC(=O)[C@H](C)NC(=O)CNC(=O)CNC(=O)[C@H](CCCNC(=N)N)NC(=O)[C@H](CCCNC(=N)N)NC(=O)[C@H](CCCNC(=N)N)NC(=O)[C@H](CCC(N)=O)NC(=O)[C@H](CCCNC(=N)N)NC(=O)[C@H](CCCNC(=N)N)NC(=O)[C@H](CCCCN)NC(=O)[C@H](CCCCN)NC(=O)[C@@H](N)CCCNC(=N)N)C(=O)N1CCC[C@H]1C(=O)N[C@@H](Cc1ccccc1)C(=O)N[C@@H](CCCNC(=N)N)C(=O)N[C@H]1CSSC[C@@H](C(=O)O)NC(=O)[C@H](Cc2ccccc2)NC(=O)[C@H](C)NC(=O)[C@H](C)NC(=O)[C@H](CCCCN)NC1=O` [TAT-KOV2] (HELM PEPTIDE1{R.K.K.R.R.Q.R.R.R.G.G.A.A.K.L.P.F.R.C.K.A.A.F.C}$PEPTIDE1,PEPTIDE1,19:R3-24:R3$$$V2.0), for which, in data set [1], the “Chymotrypsin Ki” value is recorded as “N.I”. Moreover, the MIC in data set [2] is greater than 128 µM; in data set [3], greater than 128 µM; in [4], 32 µM; in [6] it was 4 µM; in data set [7], 128 µM. For the same compound, the MBC in data set [2] is greater than 128 µM; in data set [3], greater than 128 µM; in [4], 64 µM; in data set [6] it was 4/4 µM; in [7], greater than 128 µM. Further, in data set [5] (setting [10]), the Haemolytic activity is given as 10%. The same compound gave a Ki in [8] of 10.1 µM. Moreover, in [9], the “Effect on existing biofilms (MBEC)” value was greater than 128 µM. In addition, the “Concentration inhibiting biofilm formation (MBIC)” value in data set [9] is listed as 8 µM.

Take `CC(C)C[C@H](NC(=O)[C@H](CCCCN)NC(=O)[C@H](C)NC(=O)[C@H](C)N)C(=O)N1CCC[C@H]1C(=O)N[C@@H](Cc1ccccc1)C(=O)N[C@@H](CCCNC(=N)N)C(=O)N[C@H]1CSSC[C@@H](C(=O)O)NC(=O)[C@H](Cc2ccccc2)NC(=O)[C@H](C)NC(=O)[C@H](C)NC(=O)[C@H](Cc2ccccc2)NC1=O` [F9-KOV2] (HELM PEPTIDE1{A.A.K.L.P.F.R.C.F.A.A.F.C}$PEPTIDE1,PEPTIDE1,8:R3-13:R3$$$V2.0): the Ki in data set [1] turned out to be 2.19 µM. Further, the MIC in [2], in data set [3], in data set [4], in data set [6] and in data set [7] was greater than 128 µM in each case. The MBC in data set [2], in [3], in data set [4], in [6] and in [7] was greater than 128 µM throughout. Moreover, the Haemolytic activity entry in [5] (setting [10]) is listed as “less than 10%”. In addition, the “Trypsin Ki” value in data set [8] is “N.I”. Also, in [9], the “Concentration inhibiting biofilm formation (MBIC)” value is recorded as greater than 128 µM.
